In BindingDB's records for PubMed 8169832 (University of Pennsylvania, 1994):

target: 5-hydroxytryptamine receptor 6 (Mus musculus, UniProt Q9R1C8)
Sequence (Q9R1C8 whole entry): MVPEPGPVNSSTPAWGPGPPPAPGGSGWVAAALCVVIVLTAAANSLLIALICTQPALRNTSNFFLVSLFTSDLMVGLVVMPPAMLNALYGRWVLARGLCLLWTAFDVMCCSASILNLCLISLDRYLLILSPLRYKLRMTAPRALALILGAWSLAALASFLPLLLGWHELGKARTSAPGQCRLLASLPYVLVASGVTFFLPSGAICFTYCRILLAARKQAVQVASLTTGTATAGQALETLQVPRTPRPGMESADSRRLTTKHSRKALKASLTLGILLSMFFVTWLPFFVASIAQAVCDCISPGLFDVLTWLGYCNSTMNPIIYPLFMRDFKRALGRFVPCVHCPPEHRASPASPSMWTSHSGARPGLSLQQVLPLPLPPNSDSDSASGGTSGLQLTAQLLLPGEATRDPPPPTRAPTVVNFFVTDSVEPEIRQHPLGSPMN

Structure (SMILES) | Ki
Cn1cc(CCN)c2cc(O)ccc21 [5-HT,omega-N-Me] | 2000 nM
CN1CCN2c3ccccc3Cc3ccccc3[C@H]2C1 [MIANSERIN (+)] | 19.9 nM
CSc1ccc2c(c1)C(N1CCN(C)CC1)Cc1ccccc1S2 (stereo not drawn) [methanesulfonic acid;1-methyl-4-(3-methylsulfanyl-5,6-dihydrobenzo[b][1]benzothiepin-5-yl)piperazine] | 1.99 nM
Cc1[nH]c2ccc(O)cc2c1CCN | 398 nM
CN1CCN(C2=c3ccccc3=Nc3ccc(Cl)cc3N2)CC1 [6-chloro-10-(4-methylpiperazin-1-yl)-2,9-diazatricyclo[9.4.0.0^{3,8}]pentadeca-1,3(8),4,6,10,12,14-heptaene] | 31.6 nM
O=C(c1ccc(F)cc1)C1CCN(CCn2c(=O)[nH]c3ccccc3c2=O)CC1 [3-(2-{4-[(4-fluorophenyl)carbonyl]piperidin-1-yl}ethyl)-1,2,3,4-tetrahydroquinazoline-2,4-dione] | 1000 nM
NCCc1c[nH]c2ccc(O)cc12 [[3H]-5-HT] | 39.8 nM
CN1CCc2cc(Cl)c(O)cc2[C@@H](c2ccccc2)C1 [SCH 23390,R(+)] | 2510 nM
